In PubChem BioAssay (NCI):
Values joined by “and” are separate entries in the source; they are usually repeats but may differ in a detail not shown here. Identical values can stand only once.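 Values below derive from 48-hour exposures of cells grown in 96-well plates, with endpoints linearly interpolated between the two concentrations bracketing the appropriate inhibition level. GI50 = concentration required for 50% inhibition of growth. TGI: concentration producing complete growth inhibition.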

Legend:
Test in all cases: DTP human tumour cell line panel, 48 h
OVCAR-4 ovarian = system: OVCAR-4 ovarian
UACC-257 melanoma = system: UACC-257 melanoma
SF-539 CNS = system: SF-539 CNS
SW-620 colon = system: SW-620 colon
U251 CNS = system: U251 CNS
SK-MEL-2 melanoma = system: SK-MEL-2 melanoma
SNB-19 CNS = system: SNB-19 CNS
SK-MEL-28 melanoma = system: SK-MEL-28 melanoma
TK-10 renal = system: TK-10 renal
IGROV1 ovarian = system: IGROV1 ovarian

Row | SMILES | TGI (OVCAR-4 ovarian) [µM] | TGI (UACC-257 melanoma) [µM] | TGI (SF-539 CNS) [µM] | TGI (SW-620 colon) [µM] | TGI (U251 CNS) [µM] | TGI (SK-MEL-2 melanoma) [µM] | TGI (SNB-19 CNS) [µM] | TGI (SK-MEL-28 melanoma) [µM] | TGI (TK-10 renal) [µM] | TGI (IGROV1 ovarian) [µM] | GI50 (OVCAR-4 ovarian)
1 | N#CC(c1ccccc1)N(CCOCCOCCN(C(=O)c1ccccc1)C(C#N)c1ccccc1)C(=O)c1ccccc1 (stereo unspecified) | > 100 | > 100 | > 100 | > 100 | > 100 | > 100 | > 100 | > 100 | > 100 | > 100 | –
2 | Cc1cc(C)nc(NC(=S)Nc2ccc([N+](=O)[O-])cc2)c1 | > 100 | > 100 | > 100 | > 100 | > 100 | > 100 | > 100 | > 100 | > 100 | > 100 | –
3 | COc1cc2c(cc1OCCCN1C(=O)c3cccc4cccc(c34)C1=O)N=C[C@@H]1CCCN1C2=O | > 81.4 | > 100 | > 100 | > 63 | > 100 | > 100 | > 100 | > 100 | > 100 | 31.5 | –
4 | Cc1ccc(/C=C2/N=C(N/N=C\C(O)C(O)C(O)C(O)CO)NC2=O)cc1 (stereo unspecified) | > 100 | > 100 | > 100 | > 100 | > 100 | > 100 | > 100 | > 100 | > 100 | > 100 | 85.1 µM and > 100 µM and 39.2 µM
5 | C=C(CN(C)C)C(=O)c1ccc(C(=O)C(=C)CN(C)C)cc1 | > 100 | > 100 | > 100 | > 100 | > 100 | > 100 | > 100 | > 100 | > 100 | > 100 | –
6 | O=c1c2c(no[n+]2[O-])c2ccccc2n1-c1ccccc1 | > 46.4 | 22 | 16 | 7.54 | 16.1 | 18.8 | 25 | 17 | 27.2 | 10 | –
7 | O=C(CN1C(=O)CC(c2ccccc2)(c2ccccc2)C1=O)N1CCN(CCO)CC1 | > 100 | > 100 | > 100 | > 100 | > 100 | > 100 | > 100 | > 100 | > 100 | > 100 | –
8 | COc1cc(O)c2c(=O)c(OC)c(-c3ccc(OC)c(O)c3)oc2c1 | > 100 | > 100 | > 100 | > 100 | > 100 | > 100 | > 100 | > 100 | > 100 | > 100 | –
9 | CC(C)(C)OC(=O)NC(CSSCC(NC(=O)OC(C)(C)C)C(=O)O)C(=O)O (stereo unspecified) | > 100 | > 100 | > 100 | > 100 | > 100 | > 100 | > 100 | > 100 | > 100 | > 100 | –
10 | COC(=O)c1ccccc1CC1Cc2cccc(C)c2C1=O (stereo unspecified) | > 100 | 73.3 | > 100 | > 100 | > 100 | 53.2 | > 100 | 94.5 | 71.1 | > 100 | –
11 | O=C1C(=Nc2ccc(Nc3ccccc3)cc2)Oc2ccccc21 | 6.8 | 4.56 | 8.41 | 4.67 | 4.27 | 14.4 | 8.25 | 19.3 | 12.2 | 5.96 | –
12 | O=C(CC(=O)Nc1ccccc1)NNC(Sc1ccccc1)c1cc(N=Nc2ccc(Br)cc2)ccc1O (stereo unspecified) | > 10 | > 10 | 7.91 | > 10 | > 10 | > 10 | > 10 | > 10 | > 10 | > 10 | –
13 | O=C1c2cccc3cccc(c23)C(=O)N1CCCNCCCCNCCCNCCCN1C(=O)c2cccc3cccc(c23)C1=O | 1.76 | 3.06 | 1.94 | 4.35 | 1.73 | 2.75 | 1.58 | 2.95 | 12.1 | 3.41 | –
14 | c1ccc(C2=NOC(c3ccccc3)N2C23CC4CC(CC(C4)C2)C3)cc1 (stereo unspecified) | > 10 | > 10 | > 10 | > 10 | > 10 | > 10 | > 10 | > 10 | > 10 | > 10 | –
15 | CN1CC[C@]2(c3cccc(O)c3)CC(=O)/C(=C/c3ccccc3)[C@@H]1C2 | 16.9 | 11.7 | 6.1 | 6.93 | 8.36 | 13 | 18.2 | 13.4 | 27.1 | 14.6 | –
16 | CSc1nc2c(c(N(C)C)n1)C(O)n1c(nc3ccccc31)S2 (stereo unspecified) | 24.5 | > 100 | 77.2 | > 100 | > 55.5 | > 100 | > 77.9 | > 100 | > 100 | > 100 | –
17 | CCOc1c(OC)cc(-c2nc3n(n2)C(=O)C(CC)S3)cc1OC (stereo unspecified) | > 10 | > 10 | > 10 | > 10 | > 10 | > 10 | > 10 | > 10 | > 10 | > 10 | –
18 | Nc1ncc2c(n1)-c1ccccc1OC2N1CCCC1 (stereo unspecified) | > 100 | > 100 | > 100 | > 100 | > 100 | > 100 | > 100 | > 100 | > 100 | > 100 | –
